Broadly, the IC50 is the concentration needed to halve the response being measured. A low value points to higher potency.

The structures appear in SMILES notation. Where a name gives a salt, the structure may show the parent alone.

The target of the assay is T1, acetylcholinesterase (AChE), rat striatum (Rattus norvegicus, UniProt P37136).
T1 construct: corpora striata dissected free, weighed and homogenized in 19 volumes; from tissue; host or cells: homogenate of corpora striata of male Wistar rats
T1 sequence (P37136 32-614): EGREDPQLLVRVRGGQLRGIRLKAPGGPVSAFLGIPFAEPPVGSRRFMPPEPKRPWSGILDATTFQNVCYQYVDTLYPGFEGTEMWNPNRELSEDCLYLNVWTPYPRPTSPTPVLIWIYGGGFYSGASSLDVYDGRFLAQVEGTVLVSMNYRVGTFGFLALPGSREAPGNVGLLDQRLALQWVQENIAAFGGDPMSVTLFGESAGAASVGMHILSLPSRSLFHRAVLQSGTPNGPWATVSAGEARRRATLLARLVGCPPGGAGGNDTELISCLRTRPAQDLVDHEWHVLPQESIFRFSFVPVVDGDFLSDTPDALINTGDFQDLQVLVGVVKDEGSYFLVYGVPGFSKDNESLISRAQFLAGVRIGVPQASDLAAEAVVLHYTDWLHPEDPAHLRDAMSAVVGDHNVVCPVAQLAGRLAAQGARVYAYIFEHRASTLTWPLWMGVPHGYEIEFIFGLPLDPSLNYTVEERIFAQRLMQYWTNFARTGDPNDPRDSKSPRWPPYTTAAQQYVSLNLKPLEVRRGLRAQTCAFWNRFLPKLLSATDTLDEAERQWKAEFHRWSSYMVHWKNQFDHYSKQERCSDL
The assay is described as follows: In vitro inhibition of acetylcholinesterase activity in rat striatum (modified Ellman method). The assay is classed as biochemical, Male Wistar rats. The text has this: Cholinesterases are found throughout the body, both in the brain and in serum. However, only brain acetylcholinesterase (AChE) distribution is correlated with central cholinergic innervation. […] We have determined in vitro inhibition of acetylcholinesterase activity in rat striatum according to the method described below.
In Vitro Inhibition of Acetylcholinesterase Activity in Rat Striatum
The method described below was used in this invention for assaying anticholinesterase activity. This is a modification of the method of Ellman et al., Biochem. Pharmacol. 7, 88 (1961).
1. 0.05M Phopsphate buffer, pH 7.2
(a) 6.85 g NaH2 PO4 .cndot.H2 O/100 ml distilled H2 O
(c) add (a) to (b) until pH reaches 7.2
(a) 9.9 mg 5,5-dithiobisnitrobenzoic acid (DTNB) (0.25 mM)
(b) 99 mg s-acetylthiocholine chloride (5 mM)
(c) q.s. to 100 ml with 0.05M phosphate buffer, pH 7.2 (reagent 1)
3. For most assays, a 2 mM stock solution of the test drug is made up in a suitable solvent and serially diluted such that the final concentration in the preincubation step ranges from 10^-3 to 10^-6 M. Different concentrations may be used depending on the potency of the drug.
Male Wistar rats are decapitated, brains rapidly removed, corpora striata dissected free, weighed and homogenized in 19 volumes (approximately 7 mg protein/ml) of 0.05M phosphate buffer, pH 7.2 using a Potter-Elvehjem homogenizer. A 50 microliter aliquot of the homogenate is added to 50 microliter vehicle of various concentrations of the test drug and preincubated for 10 minutes at room temperature.
1. For routine IC50 determinations the Abbott Bichromatic Analyzer, ABA-100, is used to determine acetylcholinesterase activity.
Incubation temperature: 30° C.
Reaction direction: down:endpoint
Syringe plate: 1:101 dilution
Following the 10 minute preincubation of the tissue (enzyme) with the inhibitor, the samples are mixed with the substrate chromogen buffer by the ABA-100. Using the indicated instrument settings the ABA-100 automatically reads the color reaction and prints out the results in enzyme units after 15 minutes.
2. The enzyme activity can also be measured with a Gilford 250 spectrophotometer. This method is used for more accurate kinetic measurements.
Reagents are added to the reference and sample side of a split curvette as follows:
The unhibited activity of the enzyme (tissue homogenate) is first determined. Test drugs are made up in a suitable solvent and added in suitable dilutions to the buffer vehicle. The reaction rate is determined by the slope of the recorded absorbance change. The actual rate (moles/liter/min) can be calculated as described in the following formula
rate (moles/liter/min)=slope/(1.36×10^4)
A general note: DTNB colorimetry detects thiols as they appear.
In the case of `CNC(=O)Oc1cccc2c1[C@]1(C)CCN(C)[C@@H]1N2C` (relative stereo) [cis-(±)-1,2,3,3a,8,8a-Hexahydro-1,3a,8-trimethylpyrrolo[2,3-b]indol-4-ylmethylcarbamate fumarate], the IC50 amounted to 60 nM.

Compound `CN1CC[C@@]2(C)c3c(OC(=O)NC4CCCCC4)cccc3N(C)[C@@H]12` (relative stereo) [cis-(±)-1,2,3,3a,8,8a-Hexahydro-1,3a,8-trimethylpyrrolo[2,3-b]indol-4-ylcyclohexyl carbamate fumarate] yielded an IC50 of 550 nM.

The compound `CNC(=O)Oc1ccc2c(c1)N(C)[C@H]1N(C)CC[C@@]21C` (relative stereo) [cis-(±)-1,2,3,3a,8,8a-Hexahydro-1,3a,8-trimethylpyrrolo[2,3-b]indol-6-ylmethylcarbamate salicylate] showed an IC50 of 230 nM.

In turn, `CNC(=O)Oc1cc2c(cc1Br)[C@]1(C)CCN(C)[C@@H]1N2C` (relative stereo) [cis-(±)-5-Bromo-1,2,3,3a,8,8a-hexahydro-1,3a,8-trimethylpyrrolo[2,3-b]indol-6-yl methyl carbamate sesquifumarate] registered an IC50 of 13 nM.

Regarding `CN1CC[C@@]2(C)c3ccc(OC(=O)NC4CCCCC4)cc3N(C)[C@@H]12` (relative stereo) [cis-(±)-1,2,3,3a,8,8a-Hexahydro-1,3a,8-trimethylpyrrolo[2,3-b]indol-6-ylcyclohexyl carbamate salicylate], half-maximal inhibition (IC50) required 5500 nM.

For the origin of these results see patent US5081117A (priority 1989, dated 1992).
